Experimental data published in patent US20250268844A1, “ANTICANCER AGENTS BASED ON CYCLOPENTENONES” (UNIVERSITY OF CRETE, priority 2022, published 2025).
pIC50: −log10 of the molar value. Entries after “also recorded” stand apart in the source; their conditions may differ.

Assays:
[1] = tested on: A2780 ovarian carcinoma cells; assay: MTT conversion assay, A2780; type: cell-based, human; conditions: Homo sapiens, 48 hrs treatment
Procedure: (§1) In particular, Enone-1 and Enone-2 were tested for cytotoxic activity in 17 cell lines representing a broad spectrum of human tumors. They include human colorectal carcinoma (Caco2, RKO, HCT15, HT29), liver (HepG2), lung (A549), ovarian carcinoma (A2780, 2780CP, AGE60, SKOV3), anaplastic large cell lymphoma (Mac1 and Mac2a), breast carcinoma (MDA-MB-231), cervical (HeLa), bladder cancer (VM-CUB-1), melanoma (BRO), and multiple myeloma (MR20).
(§2) Each assay was performed in triplicate and repeated in 2-3 independent experiments. Specifically, to measure cell survival, 20 μl of 10 mg/ml MTT (3-([…])-2,5-diphenyl tetrazolium bromide; Sigma) was added to each well and the plates were incubated at 37° C. in 5% CO2 for 3 hours. The supernatant was removed and the formed crystals were dissolved in 200 μl dimethyl sulphoxide. The plates were then analysed at 450 nm on a plate reader. Growth inhibition (reduction in survival) was calculated by expressing the differences in optical densities between treatment wells and control wells as a percentage of the control.

[2] = tested on: MR20 multiple myeloma cells; assay: MTT conversion assay, MR20; type: cell-based, human; conditions: Homo sapiens, Multiple myeloma cell, 48 hrs treatment
Procedure: as §1, §2

[3] = tested on: 2780CP, a cis-platin-resistant derivative of A2780; assay: MTT conversion assay, 2780CP; type: cell-based, human
Procedure: as §1, §2
Resistance to platinum-based chemotherapy is a major problem in oncology that impacts therapeutic options and limits patient survival. This is relevant to several types of malignancy, including ovarian cancer where platinum resistance frequently occurs. As Enone-1 and 2 show efficacy in reducing survival of A2780 ovarian carcinoma cells, the drugs were also tested in 2780CP, a cis-platin-resistant derivative of A2780 [13].

[4] = tested on: A2780 ovarian cancer cells; assay: PrestoBlue cell viability assay; type: cell-based, human; conditions: Homo sapiens, 72 hrs treatment, n=3 experiments
Procedure: The effects of Enone-1 and Enone-2 on cancer cells were confirmed using a second methodology, namely the PrestoBlue assay (PrestoBlue™ Cell Viability Reagent, Thermo Fisher, Catalog number: A13261), a cell permeable resazurin-based solution that functions as a cell viability indicator. A2780 ovarian cancer cells were plated as described above for the MTT assays and Enone drugs were added at increasing concentrations as indicated in FIG. 2. Cell viability was determined 72 hrs later following the addition of PrestoBlue, according to the manufacturer's instructions (Thermo Fisher).

HepG2 liver cells = assay: MTT conversion assay, HepG2; type: cell-based, human; conditions: Homo sapiens, 48 hrs treatment
Procedure: as §1, §2

[5] = tested on: A2780 ovarian carcinoma cells; assay: Clonogenic assay; type: cell-based, human; conditions: 12 hours treatment with 2.5 μM or 5.0 μM, colonies on day 10, compared with cis-platin
Source text: The long-term effects of Enone-2 on tumor cell survival were examined by using clonogenic assays which assess the ability of single cells to survive and reproduce to form colonies. […] The colonies formed on day 10 were visualized by staining with crystal violet following cell fixation and enumerated.

[6] = tested on: HT29 colorectal carcinoma cells; assay: MTT conversion assay, HT29; type: cell-based, human; conditions: Homo sapiens, HT-29, HT29, colon, 48 hrs treatment
Procedure: as §1, §2

[7] = tested on: AGE60 ovarian carcinoma cells; assay: MTT conversion assay, AGE60; type: cell-based, human; conditions: Homo sapiens, Ovarian carcinoma cell, 48 hrs treatment
Procedure: as §1, §2

p53 [8] = assay: p53 immunoblot in A2780 cells; type: cell-based, human; conditions: 2.5 μM or increasing concentrations, 6 hrs or time course
Procedure: FIG. 8: Enones induce the p53 pathway. […] Cell lysates were analyzed for p53 and GAPDH (loading control). (B) A2780 cells were cultured in the presence or absence of 2.5 μM for the indicated time points before being analyzed for p53 and GAPDH levels. (C) Treatment of A2780 cells with 2.5 μM Enone-2 results in the up-regulation of p53-regulated genes (*p<0.05; **p<0.01; ***p<0.001, n=4). (D) Induction of p53 accumulation in AGE60 ovarian carcinoma cells following 6 or 14 hr exposure to 2.5 μM Enone-2. (E) Enone-1 induces the p53 pathway in A2780 cells which were cultured in the presence of 2.5 μM of the drug and analyzed as in (B). (F) Treatment of A2780 cells with 2.5 μM Enone-2 results in the up-regulation of p53-regulated genes (*p<0.05; **p<0.01; ***p<0.001, n=3).
The effects of Enone-2 on p53 and p53-dependent transcription of cell cycle and cell death-associated genes was confirmed by immunoblotting for p53 and by reverse transcription qPCR (RT-qPCR) for mdm2, p21, bax and bbc3/puma, established p53 target genes.

p53 [9] = assay: siRNA knockdown of Chek2 or Rpl11 and drug-induced p53 activation in A2780 cells; type: cell-based, human; conditions: A2780 transiently transfected with siRNAs
Procedure: FIG. 9. […] A2780 cells were cultured for 6 hrs in the presence of drug concentrations as indicated. (B) Effects of siRNA targeting RPL11 (siRPL11), Chek2 (siChek2) or the unrelated luciferase (Luci) genes on RPL11 and Chek2 mRNA levels quantified by RT-PCR. (C) Effects of siRpl11 on Enone-2 and oxaliplatin (OXA)-induced p53 activation. Expression levels relative to GAPDH are indicated; untreated controls (CNT) were given the arbitrary value of 1. […] Expression levels relative to GAPDH are indicated; untreated controls (CNT) were given the arbitrary value of 1.
To further validate this observation, A2780 cells were transiently transfected with siRNAs targeting Chek2 which is required for DDR-induced p53, or Rpl11 which is required for RS-mediated p53 activation. The efficacy and specificity of the knockdowns were confirmed by RT-qPCR (FIG. 9B).

[10] = tested on: Caco-2 colorectal carcinoma cells; assay: MTT conversion assay, Caco-2; type: cell-based; conditions: Homo sapiens, Caco-2, colon, 48 hrs treatment
Procedure: as §1, §2

[11] = tested on: RKO colorectal carcinoma cells; assay: MTT conversion assay, RKO; type: cell-based, human; conditions: Homo sapiens, colon, 48 hrs treatment
Procedure: as §1, §2

BRO melanoma cells = assay: MTT conversion assay, BRO; type: cell-based, human; conditions: Homo sapiens, 48 hrs treatment
Procedure: as §1, §2

pIC50 [1]: 6.30 | pIC50 [2]: 7.00 | pIC50 ([3]; Homo sapiens, A2780, 2780CP, ovarian, cis-platin-resistant, 48 hrs treatment, MTT): 6.15 | pIC50 [4]: 6.92 | pIC50 (HepG2 liver cells): 5.52 | pIC50 [6]: 6.05 | pIC50 [7]: 5.92 | pIC50 [10]: 5.74 | pIC50 [11]: 5.92 | pIC50 (BRO melanoma cells): 5.42
SMILES: C[C@@]1(O)C=CC(=O)[C@H]1c1ccc(F)c2ccccc12 (stereo in doubt) [Enone-2, 5-(4-fluoronaphthalen-1-yl)-4-hydroxy-4-methylcyclopent-2-en-1-one]
sensitivity of 2780CP cells compared with cis-platin-sensitive A2780 cells ([3]; MTT conversion assays): nearly as sensitive; also recorded: remain sensitive | number of colonies formed [5]: lower than the equivalent dose of cis-platin | p53 accumulation (immunoblot) (p53 [8]): robust p53 accumulation; also recorded: robustly induced p53 accumulation | effect of Chek2 or Rpl11 siRNA knockdown on drug-induced p53 activation (p53 [9]): only Rpl11 knockdown that affected Enone-2 mediated p53 activation
